Reference: DBAASP
In brackets after ≈: the same amount, converted by molar mass. Several values for one entry are separate records, joined by “and”; a condition that tells them apart may be missing. Equal entries are not always repeated. Each block holds one compound with its values, some of them ahead of it.

Columns and labels:
Test in all cases: ≥ marks a high value that may be exact or a test limit, other limits are often not marked, values filed in µg/mL are converted to µM
[1] = test system: Klebsiella pneumoniae E406-17
[2] = test system: Pseudomonas aeruginosa ATCC 27853
[3] = test system: Staphylococcus aureus USA 300
[4] = test system: Pseudomonas aeruginosa E411-17
[5] = test system: Acinetobacter baumannii B28-16
[6] = test system: Staphylococcus aureus ATCC 25923
[7] = test system: Escherichia coli ATCC 25922
Escherichia coli E423-17 = test system: Escherichia coli E423-17
[8] = test system: Klebsiella pneumoniae ATCC 10031
[9] = test system: Staphylococcus aureus ATCC 6538
[10] = test system: Pseudomonas aeruginosa ATCC 13388
[11] = test system: Salmonella enterica subsp. enterica serovar Typhimurium ATCC 14028
[12] = test system: Escherichia coli ATCC 11219
Escherichia coli D21 = test system: Escherichia coli D21
[13] = test system: Acinetobacter baumannii ATCC 19606
[14] = test system: Staphylococcus aureus II ATCC 6538P
[15] = test system: Candida albicans ATCC 10231
[16] = test system: Enterobacter cloacae ATCC 49141
[17] = test system: Pseudomonas aeruginosa DSM 1128
[18] = test system: Streptococcus pneumoniae DSM 11865
[19] = test system: Escherichia coli DSM 1103
[20] = test system: Klebsiella pneumoniae DSM 681
[21] = test system: Clavibacter michiganensis subsp. michiganensis DSM 46294
[22] = test system: Pseudomonas syringae pv. syringae DSM 10604
Alternaria alternata = test system: Alternaria alternata
[23] = test system: Pectobacterium carotovorum subsp. carotovorum DSM 30168
[24] = test system: Xanthomonas vesicatoria DSM 50861
[25] = test system: Pseudomonas corrugata DSM 7228
[26] = test system: Pseudomonas syringae pv. tomato DC3000
Cladosporium herbarum = test system: Cladosporium herbarum
Botrytis cinerea = test system: Botrytis cinerea
[27] = test system: Staphylococcus aureus 90857
[28] = test system: Enterococcus faecalis ATCC 29212
[29] = test system: Salmonella typhimurium CCRC 12947
Salmonella enterica = test system: Salmonella enterica
Escherichia coli PFH13 = test system: Escherichia coli PFH13
Pseudomonas aeruginosa = test system: Pseudomonas aeruginosa
[30] = test system: Klebsiella pneumoniae CCRC 10694
[31] = test system: Staphylococcus aureus CCRC 12652
[32] = test system: Staphylococcus aureus CCRC 15211
Escherichia coli PFH1 = test system: Escherichia coli PFH1
Escherichia coli BL21 = test system: Escherichia coli BL21
Staphylococcus xylosus = test system: Staphylococcus xylosus
Escherichia coli JM109 = test system: Escherichia coli JM109
[33] = test system: Streptococcus alactolyticus
Citrobacter koseri = test system: Citrobacter koseri
[34] = test system: Listeria monocytogenes ATCC 15313
[35] = test system: Vibrio parahaemolyticus CCRC 10806
Escherichia coli PFL6 = test system: Escherichia coli PFL6
[36] = test system: Bacillus cereus ATCC 11778
Escherichia coli PFH12 = test system: Escherichia coli PFH12
[37] = test system: Salmonella enterica subsp. enterica serovar Enteritidis ATCC 13076

MIC [8]: 10 µM (≈ 13.9 µg/mL) | MIC [9]: 10 µM (≈ 13.9 µg/mL) | MIC [10]: 20 µM (≈ 27.7 µg/mL) | MIC [11]: 20 µM (≈ 27.7 µg/mL) | MIC [12]: 10 µM (≈ 13.9 µg/mL)
Structure (SMILES): CC[C@H](C)[C@H](NC(=O)CN)C(=O)N[C@@H](Cc1cnc[nH]1)C(=O)N[C@@H](CC(=O)O)C(=O)N[C@H](C(=O)N[C@@H](CC(C)C)C(=O)N[C@@H](CCCCN)C(=O)N[C@@H](Cc1ccc(O)cc1)C(=O)NCC(=O)N[C@@H](CCCCN)C(=O)N[C@@H](CCCN=C(N)N)C(=O)N[C@@H](CO)C(N)=O)[C@@H](C)CC [GIHDILKYGKRS]

MIC [21]: 29.2 µM (≈ 40 µg/mL) | MIC [22]: 3.66 µM (≈ 5 µg/mL) | MIC (Alternaria alternata): ≥ 73.1 µM | MIC [23]: 29.2 µM (≈ 40 µg/mL) | MIC [24]: 29.2 µM (≈ 40 µg/mL) | MIC [25]: 14.6 µM (≈ 20 µg/mL) | MIC [26]: 7.31 µM (≈ 9.99 µg/mL) | MIC (Cladosporium herbarum): ≥ 73.1 µM | MIC (Botrytis cinerea): ≥ 73.1 µM
Structure (SMILES): CC[C@H](C)[C@H](NC(=O)[C@H](C)NC(=O)[C@H](CCCCN)NC(=O)[C@H](CCCCN)NC(=O)[C@H](CC(C)C)NC(=O)[C@H](Cc1ccccc1)NC(=O)[C@H](Cc1cnc[nH]1)NC(=O)[C@H](C)NC(=O)[C@H](CC(C)C)NC(=O)[C@H](C)N)C(=O)N[C@@H](CCCCN)C(=O)N[C@@H](CCCCN)C(N)=O [ALAHFLKKAIKK]

MIC [28]: ≥ 32 µM | MIC [29]: 21.1 µM (≈ 32 µg/mL) | MIC (Salmonella enterica): 10.6 µM (≈ 16 µg/mL) | MIC (Escherichia coli PFH13): 3.74 µM (≈ 5.65 µg/mL) | MIC (Pseudomonas aeruginosa): 63.4 µM (≈ 95.9 µg/mL) | MIC [30]: 21.1 µM (≈ 32 µg/mL) | MIC [2]: ≥ 32 µM | MIC [31]: 10.6 µM (≈ 16 µg/mL) | MIC [32]: 21.1 µM (≈ 32 µg/mL) | MIC (Escherichia coli PFH1): 3.74 µM (≈ 5.65 µg/mL) | MIC (Escherichia coli BL21): 2.64 µM (≈ 4 µg/mL) | MIC (Staphylococcus xylosus): 0.991 µM (≈ 1.5 µg/mL) | MIC [15]: 4 µM (≈ 6.05 µg/mL) | MIC (Escherichia coli JM109): 5.28 µM (≈ 7.99 µg/mL) | MIC [33]: 5.28 µM (≈ 7.99 µg/mL) | MIC (Citrobacter koseri): 2.64 µM (≈ 4 µg/mL) | MIC [34]: 4 µM (≈ 6.05 µg/mL) | MIC [6]: 4 µM (≈ 6.05 µg/mL) | MIC (Escherichia coli PFL6): 5.28 µM (≈ 7.99 µg/mL) | MIC [36]: 8 µM (≈ 12.1 µg/mL) | MIC (Escherichia coli PFH12): 3.74 µM (≈ 5.65 µg/mL) | MIC [37]: 4 µM (≈ 6.05 µg/mL)
Structure (SMILES): CC[C@H](C)[C@H](N)C(=O)N[C@@H](CC(N)=O)C(=O)N[C@@H](CC(C)C)C(=O)N[C@@H](CCCCN)C(=O)N[C@@H](C)C(=O)N[C@H](C(=O)N[C@@H](C)C(=O)N[C@@H](C)C(=O)N[C@@H](CC(C)C)C(=O)N[C@@H](C)C(=O)N[C@@H](CCCCN)C(=O)N[C@@H](CCCCN)C(=O)N[C@@H](CC(C)C)C(=O)N[C@@H](Cc1ccccc1)C(N)=O)[C@@H](C)CC [INLKAIAALAKKLF]
MIC [35]: 10.6 µM (≈ 16 µg/mL)

Second part, the compound before the results:

Structure (SMILES): NC(=O)[C@H](CCCN=C(N)N)NC(=O)[C@H](Cc1c[nH]c2ccccc12)NC(=O)[C@H](Cc1c[nH]c2ccccc12)NC(=O)[C@H](CCCN=C(N)N)NC(=O)[C@H](Cc1c[nH]c2ccccc12)NC(=O)[C@H](Cc1c[nH]c2ccccc12)NC(=O)[C@H](CCCN=C(N)N)NC(=O)[C@@H](N)CCCN=C(N)N [RRWWRWWR]
MIC [1]: ≥ 32 µM | MIC [2]: 3.6 µM (≈ 5 µg/mL) | MIC [3]: 5.66 µM (≈ 7.84 µg/mL) | MIC [4]: 8 µM (≈ 11.1 µg/mL) | MIC [5]: ≥ 32 µM | MIC [6]: 1.8 µM (≈ 2.5 µg/mL) | MIC [7]: 5.41 µM (≈ 7.49 µg/mL) | MIC (Escherichia coli E423-17): 8 µM (≈ 11.1 µg/mL)

Structure (SMILES): CC(C)C[C@H](NC(=O)[C@H](Cc1cnc[nH]1)NC(=O)[C@H](CCCN=C(N)N)NC(=O)[C@H](CC(C)C)NC(=O)[C@H](CC(C)C)NC(=O)[C@H](Cc1cnc[nH]1)NC(=O)[C@H](CCCN=C(N)N)NC(=O)[C@H](CC(C)C)NC(=O)[C@H](CC(C)C)NC(=O)[C@H](Cc1cnc[nH]1)NC(=O)[C@H](CCCN=C(N)N)NC(=O)[C@H](CC(C)C)NC(=O)[C@H](C)NC(=O)[C@H](CC(=O)O)NC(=O)[C@@H](N)CC(=O)O)C(=O)O [DDALRHLLRHLLRHL]
MIC (Escherichia coli D21): ≥ 100 µM | MIC [13]: > 100 µM | MIC [14]: ≥ 100 µM | MIC [2]: 100 µM (≈ 188 µg/mL) | MIC [15]: 25 µM and > 12.5 µM | MIC [7]: 100 µM (≈ 188 µg/mL) | MIC [16]: ≥ 100 µM

Structure (SMILES): CC(C)C[C@H](NC(=O)[C@@H](NC(=O)[C@H](C)NC(=O)[C@H](C)NC(=O)[C@H](CCCN=C(N)N)NC(=O)CNC(=O)CNC(=O)[C@H](CCCN=C(N)N)NC(=O)[C@@H](NC(=O)[C@H](CCCN=C(N)N)NC(=O)[C@H](C)NC(=O)[C@H](Cc1ccc(O)cc1)NC(=O)[C@H](Cc1ccc(O)cc1)NC(=O)[C@H](CCCCN)NC(=O)[C@H](CCC(N)=O)NC(=O)[C@@H](N)CC(C)C)C(C)C)C(C)C)C(=O)N[C@@H](CO)C(=O)O [LQKYYARVRGGRAAVLS]
MIC [17]: ≥ 157 µM | MIC [18]: ≥ 157 µM | MIC [19]: ≥ 157 µM | MIC [6]: > 157 µM | MIC [20]: ≥ 157 µM

Structure (SMILES): CC(C)C[C@H](NC(=O)[C@H](CC(C)C)NC(=O)[C@H](CCCN=C(N)N)NC(=O)[C@H](CCCCN)NC(=O)[C@H](CC(C)C)NC(=O)[C@H](CC(C)C)NC(=O)[C@H](CCCCN)NC(=O)[C@H](CC(C)C)NC(=O)[C@H](CCCN=C(N)N)NC(=O)[C@H](CCCCN)NC(=O)[C@H](CCCCN)NC(=O)[C@@H](N)CCCN=C(N)N)C(N)=O [RKKRLKLLKRLL]
MIC [21]: 1.6 µM (≈ 2.5 µg/mL) | MIC [22]: 0.0639 µM (≈ 0.0999 µg/mL) | MIC [27]: 6.25 µM (≈ 9.78 µg/mL) | MIC [23]: 6.39 µM (≈ 9.99 µg/mL) | MIC [24]: 0.0639 µM (≈ 0.0999 µg/mL) | MIC [25]: 0.0639 µM (≈ 0.0999 µg/mL) | MIC [26]: 6.39 µM (≈ 9.99 µg/mL)
